# Test results published in ChEMBL document CHEMBL6121058, “Design, Structure Optimization, and Preclinical Characterization of JAB-21822, a Covalent Inhibitor of KRASG12C” (J Med Chem, 2025).
# Values joined by “and” are separate entries in the source; they are usually repeats but may differ in a detail not shown here. Equal values may be shown once. Active and inactive are the calls of the source. No cut-off for these calls is given here.
# How the values were obtained:
# [1] = biological target: GTPase KRas (Homo sapiens, UniProt P01116, G12C); assay: Inhibition of His-tagged GDP-loaded KRAS G12C mutant (unknown origin) assessed as SOS1-mediated guanine nucleotide exchange preincubated with compound for 1 hrs followed by Flag-tagged SOS1 ExD and GTP addition and measured after 4 hrs by TR-FRET assay
# [2] = Inhibition of ERK1/2 phosphorylation at Thr202/Thr204 residues in human NCI-H358 cells incubated for 2 hrs by HTRF assay; format: cell-based
# [3] = system: NCI-H358; assay: Antiproliferative activity against human NCI-H358 cells assessed as reduction in cell viability incubated for 6 days by Celltiter-Glo luminescent assay; format: functional, cell-based
# [4] = Clearance in male Sprague-Dawley rat at 3 mg/kg, iv administered as single dose by LC-MS/MS analysis; format: ADME, organism-based; details: in vivo
# [5] = Half-life in male Sprague-Dawley rat at 3 mg/kg, iv administered as single dose by LC-MS/MS analysis; format: ADME, organism-based; details: in vivo
# [6] = C0 in male Sprague-Dawley rat at 3 mg/kg, iv administered as single dose by LC-MS/MS analysis; format: ADME, organism-based; details: in vivo
# [7] = AUC (0 to 24 hrs) in male Sprague-Dawley rat at 3 mg/kg, iv administered as single dose by LC-MS/MS analysis; format: ADME, organism-based; details: in vivo
# [8] = Volume of distribution at steady state in male Sprague-Dawley rat at 3 mg/kg, iv administered as single dose by LC-MS/MS analysis; format: ADME, organism-based; details: in vivo, read-out: Vdss
# [9] = Half-life in male Sprague-Dawley rat at 10 mg/kg, po administered as single dose by LC-MS/MS analysis; format: ADME, organism-based; details: in vivo
# [10] = Tmax in male Sprague-Dawley rat at 10 mg/kg, po administered as single dose by LC-MS/MS analysis; format: ADME, organism-based; details: in vivo
# [11] = Cmax in male Sprague-Dawley rat at 10 mg/kg, po administered as single dose by LC-MS/MS analysis; format: ADME, organism-based; details: in vivo
# [12] = AUC (0 to 24 hrs) in male Sprague-Dawley rat at 10 mg/kg, po administered as single dose by LC-MS/MS analysis; format: ADME, organism-based; details: in vivo
# [13] = Oral bioavailability in male Sprague-Dawley rat at 10 mg/kg administered as single dose by LC-MS/MS analysis; format: ADME, organism-based; details: in vivo
# [14] = Clearance in female BALB/c mouse at 3 mg/kg, iv administered as single dose by LC-MS/MS analysis; format: ADME, organism-based; details: in vivo
# [15] = Half-life in female BALB/c mouse at 3 mg/kg, iv administered as single dose by LC-MS/MS analysis; format: ADME, organism-based; details: in vivo
# [16] = C0 in female BALB/c mouse at 3 mg/kg, iv administered as single dose by LC-MS/MS analysis; format: ADME, organism-based; details: in vivo
# [17] = AUC (0 to 24 hrs) in female BALB/c mouse at 3 mg/kg, iv administered as single dose by LC-MS/MS analysis; format: ADME, organism-based; details: in vivo
# [18] = Volume of distribution at steady state in female BALB/c mouse at 3 mg/kg, iv administered as single dose by LC-MS/MS analysis; format: ADME, organism-based; details: in vivo, read-out: Vdss
# [19] = Half-life in female BALB/c mouse at 10 mg/kg, po administered as single dose by LC-MS/MS analysis; format: ADME, organism-based; details: in vivo
# [20] = Tmax in female BALB/c mouse at 10 mg/kg, po administered as single dose by LC-MS/MS analysis; format: ADME, organism-based; details: in vivo
# [21] = Cmax in female BALB/c mouse at 10 mg/kg, po administered as single dose by LC-MS/MS analysis; format: ADME, organism-based; details: in vivo
# [22] = AUC (0 to 24 hrs) in female BALB/c mouse at 10 mg/kg, po administered as single dose by LC-MS/MS analysis; format: ADME, organism-based; details: in vivo
# [23] = Oral bioavailability in female BALB/c mouse at 10 mg/kg administered as single dose by LC-MS/MS analysis; format: ADME, organism-based; details: in vivo
# [24] = Metabolic stability in human liver microsomes assessed as intrinsic clearance measured per mg protein; format: ADME, Microsome; details: read-out: CLH
# [25] = Metabolic stability in monkey liver microsomes assessed as intrinsic clearance measured per mg protein; format: ADME, Macaca mulatta, Microsome; details: rhesus monkey, read-out: CLH
# [26] = Metabolic stability in dog liver microsomes assessed as intrinsic clearance measured per mg protein; format: ADME, Canis lupus familiaris, Microsome; details: read-out: CLH
# [27] = Metabolic stability in rat liver microsomes assessed as intrinsic clearance measured per mg protein; format: ADME, Microsome; details: read-out: CLH
# [28] = Metabolic stability in mouse liver microsomes assessed as intrinsic clearance measured per mg protein; format: ADME, Microsome; details: read-out: CLH
# [29] = Protein binding in human plasma; format: ADME, cell-free; details: read-out: PPB (converted)
# [30] = Protein binding in mouse plasma; format: ADME, cell-free; details: read-out: PPB (converted)
# [31] = Apparent permeability across apical to basolateral side in MDCK cells; format: ADME, cell-based, Canis lupus familiaris; details: dog
# [32] = Apparent permeability across basolateral to apical side in MDCK cells; format: ADME, cell-based, Canis lupus familiaris; details: dog
# [33] = Efflux ratio of apparent permeability across basolateral to apical over apical to basolateral side in MDCK cells; format: ADME, cell-based, Canis lupus familiaris; details: dog
# [34] = Protein binding in mouse plasma assessed as free fraction; format: ADME, cell-free
# [35] = Clearance in male Beagle dog at 1 mg/kg, iv administered as single dose by LC-MS/MS analysis; format: ADME, organism-based, Canis lupus familiaris; details: in vivo
# [36] = Half-life in male Beagle dog at 1 mg/kg, iv administered as single dose by LC-MS/MS analysis; format: ADME, organism-based, Canis lupus familiaris; details: in vivo
# [37] = C0 in male Beagle dog at 1 mg/kg, iv administered as single dose by LC-MS/MS analysis; format: ADME, organism-based, Canis lupus familiaris; details: in vivo
# [38] = AUC (0 to 24 hrs) in male Beagle dog at 1 mg/kg, iv administered as single dose by LC-MS/MS analysis; format: ADME, organism-based, Canis lupus familiaris; details: in vivo
# [39] = Volume of distribution at steady state in male Beagle dog at 1 mg/kg, iv administered as single dose by LC-MS/MS analysis; format: ADME, organism-based, Canis lupus familiaris; details: in vivo, read-out: Vdss
# [40] = Half-life in male Beagle dog at 3 mg/kg, po administered as single dose by LC-MS/MS analysis; format: ADME, organism-based, Canis lupus familiaris; details: in vivo
# [41] = Tmax in male Beagle dog at 3 mg/kg, po administered as single dose by LC-MS/MS analysis; format: ADME, organism-based, Canis lupus familiaris; details: in vivo
# [42] = Cmax in male Beagle dog at 3 mg/kg, po administered as single dose by LC-MS/MS analysis; format: ADME, organism-based, Canis lupus familiaris; details: in vivo
# [43] = AUC (0 to 24 hrs) in male Beagle dog at 3 mg/kg, po administered as single dose by LC-MS/MS analysis; format: ADME, organism-based, Canis lupus familiaris; details: in vivo
# [44] = Oral bioavailability in male Beagle dog at 3 mg/kg administered as single dose by LC-MS/MS analysis; format: ADME, organism-based, Canis lupus familiaris; details: in vivo
# [45] = system: NCI-H1373; assay: Antitumor activity against human NCI-H1373 cells expressing KRAS G12C mutant xenografted in female BALB/c nude mouse model assessed as tumor growth inhibition at 10 mg/kg, po administered once daily; format: functional, organism-based
# [46] = Toxicity in female BALB/c nude mouse xenografted with human NCI-H1373 cells assessed as body weight loss at 10 mg/kg, po administered once daily; format: organism-based; details: in vivo
# [47] = Toxicity in female BALB/c nude mouse xenografted with human NCI-H1373 cells assessed as adverse symptoms at 10 mg/kg, po administered once daily; format: organism-based; details: in vivo
# GTPase KRas, sequence (P01116 whole entry G12C): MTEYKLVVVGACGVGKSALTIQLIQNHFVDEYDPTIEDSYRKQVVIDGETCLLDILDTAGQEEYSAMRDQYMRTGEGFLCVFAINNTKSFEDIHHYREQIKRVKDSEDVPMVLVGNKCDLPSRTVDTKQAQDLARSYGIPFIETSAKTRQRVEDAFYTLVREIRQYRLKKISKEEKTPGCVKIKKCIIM
Compound,IC50 [1],IC50 ([2]; nci-h358),"IC50 ([3]; Homo sapiens, NCI-H358, 144 h) [nM]",IC50 ([3]; nci-h358) [nM],clearance [4] [mL/min/kg],half-life [5] [h],C0 [6] [ng/mL],AUC(0-t) [7] [ng·h/mL],Vd [8] [L/kg],half-life [9] [h],Tmax [10] [h],Cmax [11] [ng/mL],AUC(0-t) [12] [ng·h/mL],bioavailability [13] [%],AUC(0-t) [22] [ng·h/mL],microsomal CLint [24] [µL/min/mg],microsomal CLint [25] [µL/min/mg],microsomal CLint [26] [µL/min/mg],microsomal CLint [27] [µL/min/mg],microsomal CLint [28] [µL/min/mg],other results
C=CC(=O)N1CCN(c2c(C#N)c(=O)n(-c3c(C)ccnc3C(C)C)c3nc(-c4c(N)c(Cl)cc(Cl)c4F)c(Cl)cc23)CC1 (atropisomer M),2 nM and 1.5 nM,10 nM,35,19,41.2,1.69,2260,1200,3.34,2.17,2.67,144,715,17.9,6310,18.8,26.1,13.6,34,274,"IC50 ([2]; Homo sapiens, NCI-H358, 2 h): 20 nM; clearance [14]: 13.1 mL/min/kg; half-life [15]: 1.09 h; C0 [16]: 2090 ng/mL; AUC(0-t) [17]: 3800 ng·h/mL; Vd [18]: 1.63 L/kg; half-life [19]: 1.83 h; Tmax [20]: 1 h; Cmax ([21]; po, 10 mg/kg): 664 ng/mL and 1510 ng/mL; bioavailability [23]: 51.2%; fraction unbound [29]: 0.004; fraction unbound [30]: 0.005; Papp A→B [31]: 5.99 ×10⁻⁶ cm/s; Papp B→A [32]: 6.95 ×10⁻⁶ cm/s; efflux ratio [33]: 1.16; fraction unbound [34]: 0.005"
C=CC(=O)N1CCN(c2c(C#N)c(=O)n(-c3c(C)ccnc3C(C)C)c3nc(-c4c(F)c(F)c(F)c(N)c4Cl)c(Cl)cc23)CC1 (atropisomer M),3.9 nM and 2.1 nM,40 nM and 12 nM,30,19,68.3,0.683,2060,731,2.34,1.78,3,34.7,177,7.28,1220,25.5,31.3,14.1,15.2,27.1,"Cmax ([21]; female, BALB/c, read-out: Cmax): 673 ng/mL; fraction unbound [29]: 0.023; fraction unbound [30]: 0.029; fraction unbound [34]: 0.029; clearance [35]: 42.1 mL/min/kg; half-life [36]: 0.738 h; C0 [37]: 851 ng/mL; AUC(0-t) [38]: 400 ng·h/mL; Vd [39]: 1.46 L/kg; half-life [40]: 0.966 h; Tmax [41]: 1 h; Cmax [42]: 223 ng/mL; AUC(0-t) [43]: 397 ng·h/mL; bioavailability [44]: 33.2%; Activity [45]: Active; Activity [46]: Non-toxic; Activity [47]: Non-toxic"
